In patent US11447482B1, “Imidazopyridine and oxazolopyridine derivatives and analogs thereof, methods of preparation thereof, methods of HIF-2A pathway inhibition, and induction of ferroptosis” (KUDA Therapeutics, Inc., priority 2019, dated 2022):
Where “and” joins values, the source holds several entries; their conditions need not be identical. Equal values may be shown once. Read-outs that look alike come from different tables or passages of the source.

Assays:
[1] = tested on: 786-0 CCRCC cells; test: ICP-MS of cellular iron, zinc and copper; type: cell-based, human; conditions: 786-0 cells, 24 hours, 1.5 μM KD002 or KD021, 2.5 μM KD025HCl, versus DMSO
Procedure: These studies were performed to determine the content of iron and other transition metals in cells after exposure the compounds described herein. 786-0 cells were seeded at 1.5 million cells/flask in T75 cm^2 flasks in DMEM+10% FBS, and allowed to adhere overnight. Cells were then treated with indicated concentrations of compounds in DMSO or DMSO alone (vehicle) for a further 24 hours, after which cells were detached by trypsinization, counted, washed twice in PBS and pelleted. Experiments were performed using three replicate T75 cm^2 flasks per condition. A 5:1 mixture of nitric acid (OPTIMA Grade, 70%, Fisher Scientific) and ultrapure hydrogen peroxide (ULTREX II, 30%, Fisher Scientific) was added to cell pellets. This mixture was allowed to digest overnight, heated until dry, and resuspended in 2% nitric acid for analysis using an Agilent 7900 ICP-MS (Agilent Technologies, Santa Clara, Calif.). Calibration standard solutions for determination of Fe were prepared from Agilent multi-element calibration standard-2A. An Agilent Environmental Calibration Standard was used as an independent control. PBS-only control digestions were used to measure background. Metal readings were normalized to cell number. Data obtained from these studies for three replicate readings (with SEM) are shown in FIG. 4, which show an increase in cellular iron (Fe) content after treatment with indicated compounds.

[2] = tested on: 786-0 CCRCC cells; test: Resazurin cell viability assay, with or without deferoxamine; type: cell-based, human; conditions: 24 hours; for IC50: 786-0 CCRCC cells, resazurin; for ratio of resazurin IC50 to HRE-Luc IC50: 786-0 HRE-Luc cells, data of FIG. 1
Procedure: (§1) Screens for inhibitory activity of compounds described herein were performed using 786-0 CCRCC cells that stably express HRE-Luc: 5 copies of the hypoxia-responsive element (HRE) fused to the pGL3 luciferase reporter (Promega Corp, Madison Wis.). 786-0 cells are pVHL deficient and thus constitutively express HIF-2α independently of cellular oxygen tension (Maxwell, Wiesener et al. 1999). Since 786-0 cells lack HIF-1α, HRE-driven luciferase activity is primarily HIF-2α driven, and has been previously validated (Koh, Lemos et al. 2011). Cells were maintained at log phase growth in Dulbecco's […] (DMEM) with 10% FBS in a humidified incubator at 37° C. with 5% CO2. For screening assays, cells were seeded at a density of 4,000 cells in 50 μl of complete media/well in quadruplicate wells/point in a 96-well plate. 24 hours later, 50 μl of a 2× concentration of test compound was added to each well. Compounds were diluted from a 5-10 mM stock in DMSO and final concentrations of DMSO in each well in controls and treated wells were kept constant at ≤0.6% DMSO. After 24 hours' treatment, luciferase activity was measured using the Steady-Glo Luciferase assay system (Promega Corp) according to the manufacturer's protocol. Cell viability was measured in quadruplicate parallel wells using resazurin as recommended by the manufacturer (R&D systems, Minneapolis, Minn.). Data for luciferase and resazurin were normalized to DMSO treated controls (defining 100%) and wells containing assay reagent but no cells (defining 0%), and graphed using the log inhibitor versus normalized response option in Prism7 Graphpad software. Representative data determined using Steady-Glo luciferase and resazurin are shown in FIGS. 1A and 1B respectively, with error bars showing standard error of the mean (SEM).
In view of the increased cellular iron concentrations induced by the compounds described herein, the involvement of iron in mediating cell death was determined. Cell viability assays were performed as described in Example 2 using resazurin as a cell viability readout, and performed in the absence or presence of 100 μM of the iron chelator, deferoxamine (D9533, MilliporeSigma, St Louis, Mo.). […] The data support an iron-dependent mechanism of cell death, or feroptosis.

[3] = biological target: HIF-2α transcriptional activity; test: Hypoxia-responsive element-driven luciferase (HRE-Luc) assay; type: cell-based, human; conditions: 786-0 CCRCC cells stably expressing HRE-Luc, 24 hours treatment
Procedure: as §1

[4] = tested on: HIF-2α; test: Western blot of treated 786-0 cells: HIF-2α; type: cell-based, human; conditions: 786-0 CCRCC cells, 24 hours
Procedure: (§2) Western blots were performed to determine the effects of the compounds on levels of HIF-2α and other relevant proteins. 786-0 (pVHL deficient clear cell kidney cancer cells) were purchased from ATCC were plated at 1×10E5 cells/well in 2 ml DMEM with 10% FBS/well in 6-well tissue culture plates. Cells were allowed to adhere overnight in a humidified incubator at 37° C. with 5% CO2, after which the appropriate concentrations of compounds in DMSO were added. DMSO concentrations were kept constant in all wells. After 24 hour's exposure to the compounds, cells were lysed and subjected to western blotting according to standard protocols (Polek, Talpaz et al. 2003). Antibodies for HIF-2α and Glyceraldehyde 3-Phosphate Dehydrogenase (GAPDH) were purchased from Cell Signaling Technology (Danvers, Mass.), whereas antibodies to iron responsive element binding protein 2 (IRP2) and Glutathione Peroxidase 4 (GPX4) were from Santa Cruz Biotechnology (Dallas, Tex.) and R&D Systems, Inc (Minneapolis, Minn.). Representative data in FIG. 3 show a dose-dependent effect of compounds in decreasing HIF-2α. Compounds also impact cellular iron sensing given by increased IRP2, which taken together indicate that cells sense decreased amounts of available iron. Representative data shown in FIG. 5 Part C show a dose dependent effect of the compounds on GPX4, which may indicate decreased resistance to ferroptosis.

[5] = tested on: CMV-driven luciferase in 786-0 cells; test: CMV-Luciferase counter-screen (constitutive luciferase); type: cell-based, human; conditions: 786-0 CMV versus 786-0 HRE cells, data of FIG. 2
Procedure: Since it is possible that non-specific inhibitors of luciferase activity and/or translation may produce false-positives in our HRE-luciferase screens, counter-screens were performed using 786-0 cells that stably express a constitutively expressed luciferase construct. 786-0 cells stably expressing CMV-driven luciferase were generated using the pGL4.50 (luc2/CMV/Hygro) vector (Promega Corp) according to the manufacturers' protocol. 786-0 HRE and 786-0 CMV were seeded in 96-well plates and were screened according to the HRE-Luc assay protocol described in Example 2. Luciferase activity following compound treatment was determined using Steady Glo luciferase. Representative data are shown in FIG. 2, wherein A, B and C refer to treatments with KD02, KD007 and KD021 respectively. Filled circles indicate results from 786-0 HRE cells, whereas empty squares indicate results from 786-0 CMV cells.

[6] = tested on: IRP2; test: Western blot of treated 786-0 cells: IRP2; type: cell-based, human; conditions: 786-0 CCRCC cells, 24 hours
Procedure: as §2

[7] = biological target: T1, recombinant ISCA2 (Homo sapiens, UniProt Q86U28); test: Thermal shift assay (SYPRO Orange); type: binding
T1 construct: His6 (N); made in house
T1 sequence (Q86U28 9-154): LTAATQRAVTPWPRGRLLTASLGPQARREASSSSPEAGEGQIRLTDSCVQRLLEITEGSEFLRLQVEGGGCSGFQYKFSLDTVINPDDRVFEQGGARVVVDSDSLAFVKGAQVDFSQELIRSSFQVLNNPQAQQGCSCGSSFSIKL
Procedure: Thermal shift assays were performed by monitoring the change in protein melting temperature (Tm) in the absence or presence of test compounds, using the hydrophobic protein binding dye, SYPRO Orange (S6650, Thermo Fisher Scientific, Waltham, Mass.), measured using the LightCycler 480 (Roche Life Sciences, Indianapolis, Ind.) according to the manufacturer's protocol. Recombinant ISCA2 was produced by expressing amino acid residues 9-154 of ISCA2 (ISCA2 lacking its mitochondrial localization sequence) in the pET28 vector containing an N-terminal His6 tag in Rosetta (DE3) competent cells (Novagen, Millipore Sigma). ISCA2 production was induced by treating ISCA2 transformed log phase cells with 0.25 mM IPTG for 4 hours at 18° C. ISCA2 was purified using Ni^2+ affinity purification according to standard protocols and eluted in 50 mM Tris-Cl pH7.4, 150 mM NaCl, 5 mM DTT. Thermal shift assays were performed in 384-well plates using 1 μl of a 10× concentration of SYPRO Orange, 8 μl of ISCA2 (4 μg protein) and 1 μl of 1-2 mM stock of test compound per well. The LightCycler was used according to the following setup: LightCycler 480 Instrument Temperature Setup: First target of 20° C., with a Hold of 15 seconds; second target of 95° C., with Acquisition Mode of Continuous, and 10 acquisitions per degree C.; and third target of 20° C., with a Hold of 15 seconds. Tms were determined using Roche Protein Melting Analysis Software. Representative data are shown in FIGS. 7 and 8 using KD001 at 200 μM final concentration and KD025 at 100 μM final concentration respectively. Part A in these figures show the changes in fluorescence with increasing temperature in control (grey traces), or treated (black traces) wells. Part B show the ratio of changes in fluorescence (dF) with changes in temperature (dT), given by dF/dT, the peak of which indicates the melting temperature of ISCA2 under these assay conditions. In these examples, for KD001 in FIG. 7, the average Tm readings for control wells was 53.21±0.36° C. (replicate readings were 53.92, 52.83, 52.90), whereas Tm readings for KD001-treated wells were 55.63±0.26° C. (replicate readings were 55.10, 55.92, 55.96). Thus, treatment with KD001 results in a change in melting temperature of ISCA2 (dTm) of 2.41±0.44° C., with a Student's t-test p-value of 0.005. For KD025 in FIG. 8, the average Tm readings for control wells was 55.02±0.2° C. (replicate readings were 55.42, 54.83, 54.81), whereas Tm readings for KD025-treated wells were 56.3±0.02° C. (replicate readings were 56.33, 56.3, 56.27). Thus, treatment with KD025 results in a change in melting temperature of ISCA2 (dTm) of […], with a Student's t-test p-value of 0.003.

SMILES | cellular copper (Cu) content (ICP-MS) [1] | cellular iron (Fe) content (ICP-MS) [1] | cellular zinc (Zn) content (ICP-MS) [1] | ratio of resazurin IC50 to HRE-Luc IC50 [2] | HIF-2α protein relative to GAPDH (western blot) [4] | ratio of CMV-Luc IC50 to HRE-Luc IC50 [5] | IRP2 protein relative to GAPDH (western blot) [6] | IC50 ([3]; Homo sapiens) | other results
COc1ccc(-c2nnc(Nc3nc4c(OC)nccc4[nH]3)o2)cc1 [KD021, N-(4-methoxy-1H-imidazo[4,5-c]75yridine-2-yl)-5-(4-methoxyphenyl)-1,3,4-oxadiazol-2-amine] | increases | increases | increases | 2.75 |  |  |  |  | IC50 ([2]; with 100 μM deferoxamine (DFO), read-out: cell viability IC50 in the presence of DFO): 83.6 µM; IC50 ([2]; without DFO, read-out: cell viability IC50): 11.4 µM; IC50 [3]: 1.4 µM
COc1nccc2[nH]c(Nc3nnc(-c4ccc(F)cc4)o3)nc12 [KD002, 5-(4-Fluorophenyl)-N-(4-methoxy-1H-imidazo[4,5-c]pyridin-2-yl)-1,3,4-oxadiazol-2-amine] | increases | increases | increases | 39.05 | decreases | 7.9 | increases | 1.56 µM | 
Fc1ccc(-c2nnc(Nc3nc4ncccc4o3)o2)cc1 [KD007, N-(5-(4-Fluorophenyl)-1,3,4-oxadiazol-2-yl)oxazolo[4,5-b]pyridin-2-amine] |  |  |  | 3.2 |  | 4.75 and 2.6 |  | 3.16 µM | 
COc1ccc(-c2nnc(Nc3nc4c(OC)nccc4[nH]3)o2)cc1OC [KD025, N-(4-Methoxy-1H-imidazo[4,5-c]pyridin-2-yl)-5-(3,4-dimethoxyphenyl)-1,3,4-oxadiazol-2-amine] |  |  |  |  |  |  |  | 1.13 µM | Tm of ISCA2 in treated wells, replicate readings ([7]; 100 μM compound): 56.33 °C and 56.3 °C and 56.27 °C; change in melting temperature of ISCA2 (dTm) ([7]; 100 μM compound, p-value 0.003): 1.21±0.20 °C; ΔTm at 100 µM ([7]; 100 μM compound, p-value 0.003, read-out: change in melting temperature of ISCA2 (dTm)): 1.21 ± 0.2 °C; Tm of ISCA2 in treated wells (average) ([7]; 100 μM compound, control wells 55.02±0.2): 56.3±0.02 °C
COc1cccc2sc(Nc3nnc(-c4ccc(F)cc4)o3)nc12 [KD001, 5-(4-fluorophenyl)-N-(4-methoxybenzo[d]thiazol-2-yl)-1,3,4-oxadiazol-2-amine] |  |  |  |  | decreases |  | increases | 3.21 µM | Tm of ISCA2 in treated wells, replicate readings ([7]; 200 μM compound): 55.10 °C and 55.92 °C and 55.96 °C; change in melting temperature of ISCA2 (dTm) ([7]; 200 μM compound, p-value 0.005): 2.41±0.44 °C; ΔTm at 200 µM ([7]; 200 μM compound, p-value 0.005, read-out: change in melting temperature of ISCA2 (dTm)): 2.41 ± 0.44 °C; Tm of ISCA2 in treated wells (average) ([7]; 200 μM compound, control wells 53.21±0.36): 55.63±0.26 °C
